Key:
Assay in all cases: radiolabelled uptake in Xenopus oocytes
Assay type in all cases: cell-based
[1] = molecular target: T1, SsAqp14 (Salmo salar, UniProt A0A6B9KBC3); conditions: 1 mM urea, isotonic, pH 7.5; labelled compound; channel transport
T1 construct: full-length cDNA from kidney RNA in pT7Ts; Xenopus laevis oocytes (15 ng cRNA)
T1 sequence (A0A6B9KBC3 1-277): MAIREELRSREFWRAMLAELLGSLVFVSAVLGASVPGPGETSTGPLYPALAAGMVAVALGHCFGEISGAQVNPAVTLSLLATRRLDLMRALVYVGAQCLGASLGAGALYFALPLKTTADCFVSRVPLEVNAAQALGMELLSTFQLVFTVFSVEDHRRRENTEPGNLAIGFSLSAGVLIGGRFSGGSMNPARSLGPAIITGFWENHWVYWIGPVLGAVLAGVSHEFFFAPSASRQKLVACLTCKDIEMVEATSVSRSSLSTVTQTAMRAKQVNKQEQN

[2] = molecular target: T2, SaAqp14 (Sparus aurata, UniProt A0A6B9KHM1); conditions: 1 mM urea, isotonic, pH 7.5; labelled compound; channel transport
T2 construct: full-length cDNA from brain RNA in pT7Ts; Xenopus laevis oocytes (15 ng cRNA); residues 261-276 TQNAMRAKQANKQENN
T2 sequence (A0A6B9KHM1 1-276): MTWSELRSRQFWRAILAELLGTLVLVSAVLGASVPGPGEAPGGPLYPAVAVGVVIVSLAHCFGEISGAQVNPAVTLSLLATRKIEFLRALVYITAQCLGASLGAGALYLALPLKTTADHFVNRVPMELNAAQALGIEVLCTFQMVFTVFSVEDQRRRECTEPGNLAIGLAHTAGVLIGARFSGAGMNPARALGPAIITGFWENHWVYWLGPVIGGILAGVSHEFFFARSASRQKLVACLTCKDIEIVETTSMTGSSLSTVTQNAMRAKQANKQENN

[3] = molecular target: T3, DrAqp14 (Danio rerio, UniProt A0A0G2L4D1); conditions: 1 mM urea, isotonic, pH 7.5; labelled compound; channel transport
T3 construct: full-length cDNA from brain RNA in pT7Ts; Xenopus laevis oocytes (15 ng cRNA)
T3 sequence (A0A0G2L4D1 1-277): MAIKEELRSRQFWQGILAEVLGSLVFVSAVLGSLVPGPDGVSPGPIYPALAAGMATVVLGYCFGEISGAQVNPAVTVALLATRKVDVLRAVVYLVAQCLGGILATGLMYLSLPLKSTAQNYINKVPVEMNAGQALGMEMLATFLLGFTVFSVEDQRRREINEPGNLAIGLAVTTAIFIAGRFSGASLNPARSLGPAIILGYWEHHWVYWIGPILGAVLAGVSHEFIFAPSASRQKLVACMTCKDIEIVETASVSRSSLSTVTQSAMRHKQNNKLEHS

[4] = molecular target: T3, DrAqp14; conditions: 1 mM glycerol, isotonic, pH 7.5; labelled compound; channel transport
[5] = molecular target: T2, SaAqp14; conditions: 1 mM glycerol, isotonic, pH 7.5; labelled compound; channel transport
[6] = molecular target: T1, SsAqp14; conditions: 1 mM glycerol, isotonic, pH 7.5; labelled compound; channel transport

| Compound | urea uptake [1] | urea uptake [2] | urea uptake [3] | glycerol uptake [4] | glycerol uptake [5] | glycerol uptake [6] |
| --- | --- | --- | --- | --- | --- | --- |
| NC(N)=O [urea] | Oocytes injected with SaAqp14 and SsAqp14 are also slightly permeable to glycerol, urea | Oocytes injected with SaAqp14 and SsAqp14 are also slightly permeable to glycerol, urea | oocytes expressing DrAqp14 are highly permeable to urea and hydrogen peroxide |  |  |  |
| OCC(O)CO [glycerol] |  |  |  | as for SaAqp14 and SsAqp14 show a lesser permeability to glycerol and methylamine | Oocytes injected with SaAqp14 and SsAqp14 are also slightly permeable to glycerol, urea | Oocytes injected with SaAqp14 and SsAqp14 are also slightly permeable to glycerol, urea |

Source: PMC6906440, “The vertebrate Aqp14 water channel is a neuropeptide-regulated polytransporter” (Communications Biology, 2019)
